Where two headings read alike, the source gives them in different places.
Columns and labels:
Sprague-Dawley rats = test: Rat tail immersion assay (noxious thermosensation); type: in vivo; conditions: rat, 100 μmol/kg oral, one hour post dosing, 55° C. water bath, relative to vehicle
Protocol: Adult male Sprague-Dawley rats (250-300 g body weight, Charles River Laboratories, Portage, Mich.) were used. Animal handling and experimental protocols were approved by the Institutional Animal Care and Use Committee (IACUC) at Abbott Laboratories. For all surgical procedures, animals were maintained under isoflurane anesthesia (4-5% to induce, 1-3% to maintain), and the incision sites were sterilized using a 10% povidone-iodine solution prior to and after surgeries.
Compounds were tested for their effects on noxious thermosensation using the tail immersion assay. Testing was performed one hour following oral administration of 100 μmol/kg of the compound in 10% ethanol/20% Tween-80/70% PEG-400 (2 mL/kg). Morphine (6 mg/kg) was administered interperitoneally (i.p.) using saline (2 mL/kg) as the vehicle. For testing, a circulating water bath was heated to 55° C. Thirty to sixty minutes post dosing, the rats were handled for a few seconds to calm them down and then cupped with their back against the tester's hand at a slight angle with head facing away from the tester. With rat in one hand and a 0.01 second stopwatch in the other hand, the tail was quickly immersed 6-8 cm in the water bath or to a distance leaving 2-3 cm of tail out of water. The timer was started simultaneously. When the rat flinched or attempted withdrawal, timer was immediately stopped and the rat's tail was quickly removed from water bath. This response latency (in seconds) was recorded. Process was repeated 3 times with 3-4 minutes between readings and the average response latency was calculated.
For a given example, a percent increase in the average response latency (in seconds) for tail withdrawal relative to a vehicle control was determined. % increase=[(tc−tv)/tv]×100%
tc=response latency (in seconds) with oral dosing of compounds
tv=response latency (in seconds) with oral dosing of vehicle
The % increases in tail withdrawal latency relative to vehicle control are divided into the following categories: […]

[1] = target: human TRPV1 receptor (hTRPV1) (Homo sapiens (Human), UniProt Q8NER1); test: Capsaicin activation assay (FLIPR intracellular Ca2+); type: cell-based; conditions: inhibition of capsaicin-induced intracellular Ca2+ increase, read-out: hTRPV1 cap IC50
In short: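 Antagonism measured as [Ca2+]i fluorescence on FLIPR Tetra: compounds given 3 min ahead of capsaicin, added as 200 nM (4×), to dye-loaded hTRPV1-HEK293 cells. Response taken as baseline-subtracted peak, normalized to the 50 nM capsaicin control; 12-point one-third-log titrations.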

[2] = Table 1, HEK293 cells expressing human TRPV1

Sequence of human TRPV1 receptor (hTRPV1) (Q8NER1 whole entry): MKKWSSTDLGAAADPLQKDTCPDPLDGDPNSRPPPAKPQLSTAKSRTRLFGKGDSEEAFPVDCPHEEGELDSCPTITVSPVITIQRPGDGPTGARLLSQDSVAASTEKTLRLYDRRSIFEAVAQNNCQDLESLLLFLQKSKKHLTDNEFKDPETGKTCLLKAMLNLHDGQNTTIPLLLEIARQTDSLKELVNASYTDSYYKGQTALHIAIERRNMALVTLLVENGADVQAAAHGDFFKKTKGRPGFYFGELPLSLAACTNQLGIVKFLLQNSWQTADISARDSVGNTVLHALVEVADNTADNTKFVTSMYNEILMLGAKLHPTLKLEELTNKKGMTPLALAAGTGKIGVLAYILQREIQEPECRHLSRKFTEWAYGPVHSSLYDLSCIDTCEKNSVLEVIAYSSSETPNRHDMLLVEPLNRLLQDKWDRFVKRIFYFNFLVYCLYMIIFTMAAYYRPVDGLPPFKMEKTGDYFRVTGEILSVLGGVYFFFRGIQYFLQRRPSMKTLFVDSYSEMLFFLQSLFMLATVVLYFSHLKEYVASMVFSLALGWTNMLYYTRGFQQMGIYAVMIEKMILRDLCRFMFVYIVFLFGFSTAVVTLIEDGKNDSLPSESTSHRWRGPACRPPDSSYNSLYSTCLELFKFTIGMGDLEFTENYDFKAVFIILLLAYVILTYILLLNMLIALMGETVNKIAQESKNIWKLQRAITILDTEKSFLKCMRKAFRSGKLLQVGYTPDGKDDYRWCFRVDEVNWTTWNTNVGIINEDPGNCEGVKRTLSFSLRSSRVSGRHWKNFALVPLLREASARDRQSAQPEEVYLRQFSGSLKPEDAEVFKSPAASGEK

With `Cn1ncc2c(NC(=O)N[C@@H]3CC[C@H](c4ccccc4)C3)cccc21` [Example 4, 1-(1-methyl-1H-indazol-4-yl)-3-[(1R,3S)-3-phenylcyclopentyl]urea] the “% Increase in tail withdrawal latency” value (Sprague-Dawley rats) was “−”, the IC50 [1, 2] was 18 nM and the IC50 ([1]; Table 2) was 22 nM.
For `Cc1cc2c(NC(=O)N[C@@H]3CC[C@H](c4ccccc4)C3)c(F)ccc2cn1` [Example 6, 1-(6-fluoro-3-methylisoquinolin-5-yl)-3-[(1R,3S)-3-phenylcyclopentyl]urea], the “% Increase in tail withdrawal latency” value (Sprague-Dawley rats) was “−”, the IC50 [1, 2] was 4 nM and the IC50 ([1]; Table 2) was 4 nM.
`O=C(Nc1cccc2[nH]ncc12)N[C@H]1CC[C@H](c2ccccc2)C1` [Example 14, 1-(1H-indazol-4-yl)-3-[(1S,3S)-3-phenylcyclopentyl]urea] was tested, and the “% Increase in tail withdrawal latency” value (Sprague-Dawley rats) was “−”, the IC50 [1, 2] was 30 nM and the IC50 ([1]; Table 2) was 30 nM.
`O=C(Nc1cccc2[nH]ncc12)N[C@@H]1CC[C@@H](c2ccccc2)C1` [Example 21, 1-(1H-indazol-4-yl)-3-[(1R,3R)-3-phenylcyclopentyl]urea] showed a change in vivo at 100 µmol/kg (Sprague-Dawley rats; 1 h, read-out: % Increase in tail withdrawal latency) of 10 to 25%, an IC50 [1, 2] of 20 nM and an IC50 ([1]; Table 2) of 20 nM.
In the case of `O=C(Nc1cccc2[nH]ncc12)N[C@H]1CC[C@@H](c2ccccc2)C1` [Example 28, 1-(1H-indazol-4-yl)-3-[(1S,3R)-3-phenylcyclopentyl]urea], the “% Increase in tail withdrawal latency” value (Sprague-Dawley rats) is reported as “−”, the IC50 [1, 2] is reported as 64 nM and the IC50 ([1]; Table 2) is reported as 64 nM.

Reference: patent US8802711B2, “TRPV1 antagonists” (AbbVie Inc., priority 2011, dated 2014)
